Source: US6399542B1, “Alkoxyimino-substituted bicyclic compounds compositions containing the same and method of making such compounds” (Agro-Kanesho Co., Ltd., priority 1997, dated 2002)
Where two headings read alike, the source gives them in different places.

What was measured:
Chochliobolus miyabeanus = experiment: Effect on Rice brown spot (preventive spray test); format: in vivo; conditions: 7 days after inoculation
Phytophthora infestans = format: in vivo; conditions: Tomato late blight, 5 days after inoculation
Puccinia recondita = experiment: Effect on Wheat brown rust (preventive spray test); format: in vivo; conditions: 7 days after inoculation
Puccinia recondite = experiment: Penetration and translocation in wheat leaves (covered leaf tip, brown rust); format: in vivo; conditions: conc. of active ingredient 200 ppm
Pyricularia oryzae = format: in vivo; conditions: Rice blast, 7 days after inoculation
Erysiphe graminis = experiment: Effects on Barley powdery mildew (preventive spray test); format: in vivo; conditions: lesions counted seven days after inoculation
[1] = test system: Psecidoperonospora cubensis; experiment: Effect on Cucumber downy mildew (preventive spray test); format: in vivo; conditions: 7 days after inoculation
[2] = test system: Pseudoperonospora cubenis; experiment: Penetration and translocation in cucumber leaf (drop on back of leaf, downy mildew); format: in vivo; design: key: 3: At least 40% of the area of the leaf was free from the disease.; 20 to 40% of the area of the leaf was free from the disease.; 1: An area larger than the spot of the drop but smaller than 20% of the area of the leaf was free from the disease.; 0: Only the spot of the drop was free from the disease; conditions: 10 μl drop on back of leaf, conc. of active ingredient 200 ppm, disease-free area 5 days after the spraying
Method: Four points were marked at random on the first leaf of each cucumber seedling (variety: Shogoin aonaga fushinari) in two-leaf stage in each pot having a diameter of 6 cm. […] The leaf was kept in a greenhouse for one day and then uniformly inoculated with a zoospore suspension of Pseudoperonospora cubenis by means of a spray gun, then left to stand in a high-humidity room at 24° C. for 24 hours, and kept in a greenhouse. The area of the disease-free part 5 days after the spraying was represented in terms of the index.
3: At least 40% of the area of the leaf was free from the disease.
2: 20 to 40% of the area of the leaf was free from the disease.
1: An area larger than the spot of the drop but smaller than 20% of the area of the leaf was free from the disease.
0: Only the spot of the drop was free from the disease.

Rhizoctonia solani = experiment: Effect on Rice sheath blight (preventive spray test); conditions: 10 days after inoculation
Method: An emulsion of a compound of the present invention prepared in Preparation Example 2 was diluted with water and uniformly sprayed on 5 rice plant seedlings (variety: Koshihikari) in 4.5-leaf stage in each plastic pot having a diameter of 6 cm, with a spray gun. One day after the spraying, the seedlings were bundled at the second sheath with a string. Colonies of Rhizoctonia solani previously cultured in PSA culture medium were bored with a cork borer to obtain pieces having a diameter of 4 mm. The piece was put in the bundle, and kept in a high-humidity room at 25° C. until the examination. Ten days after the inoculation, the degree of the disease was examined, and the preventive rate (effect of inhibiting the disease) was calculated on the basis of the following standard:
Preventive rate=[1-D′/C′]×100
C′: Severity in untreated section
D′: Severity in treated section.

Botrytis cinerea = experiment: Effect on Cucumber gray mold (cotyledon paper disc test); format: in vivo; conditions: 3 days after inoculation
Spodoptera litura = experiment: Effect on Spodoptera litura (chinese cabbage leaf spray); conditions: Test Example 12
Method: 500 ppm of a compound of the present invention in the form of an emulsion diluted with water was sprayed on a leaf of chinese cabbage seedling in 3- to 4-leaf stage. After air-drying, the leaf was placed in a plastic vessel having a size of 21 cm(length)×13 cm(width)×3 cm (depth). Ten larvae of Spodoptera litura of the third instar were put therein. The lid was put on the vessel, which was then left in a room kept at 26° C. for 48 hours and then the numbers of the living imagoes and dead ones were counted, and the rate of dead imagoes was calculated (repetition: twice).

Nephotettix cincticeps = experiment: Effect on Nephotettix cincticeps (rice seedling immersion); conditions: Test Example 14
Method: Rice plant seedlings were immersed in 500 ppm or 50 ppm of a compound of the present invention in the form of an emulsion diluted with water for 10 seconds. After air-drying, the root of each seedling was covered with a wet absorbent cotton and the seedling was put in a test tube. Ten larvae of Nephotettix cincticeps of the second instar were put therein. The opening of the test tube was covered with a gauze, and the test tube was then left in a room kept at 26° C. for 48 hours and then the numbers of the living imagoes and dead ones were counted, and the rate of dead imagoes was calculated (repetition: twice).

Aphis gossypii = experiment: Effect on Aphis gossypii (cucumber seedling spray); conditions: Test Example 15
Excerpt: 5 or 6 imagoes of Aphis gossypii were released on a cucumber seedling of 1- or 2-leaf stage in a pot. Two days after, the larvae were confirmed and the imagoes were removed. Then 500 ppm or 50 ppm of a compound of the present invention in the form of an emulsion diluted with water was sprayed on the cucumber seedling. After air-drying, the leaves were cut and put in a plastic vessel having a size of 9 cm (inner diameter)×6.5 cm (depth). The lid was put on the vessel, which was then left in a room kept at 26° C. for 48 hours and then the numbers of the living imagoes and dead ones were counted, and the rate of dead imagoes was calculated (repetition: twice).

Plutella xylostella = experiment: Effect on Plutella xylostella (Chinese cabbage leaf spray); conditions: Test Example 13
Method: 500 ppm or 50 ppm of a compound of the present invention in the form of an emulsion diluted with water was sprayed on a leaf of Chinese cabbage seedling in 3- to 4-leaf stage. After air-drying, the leaf was placed in a plastic vessel having a size of 9 cm (inner diameter)×6.5 cm (depth). Ten larvae of Plutella xylostella of the third instar were put therein. The lid was put on the vessel, which was then left in a room kept at 26° C. for 48 hours and then the numbers of the living imagoes and dead ones were counted, and the rate of dead imagoes was calculated (repetition: twice).

Tetranychus kanzawai = experiment: Effect on Tetranychus kanzawai (green bean leaf spray); conditions: Test Example 11
Method: A piece (3 cm×5 cm) of green bean leaf was placed with the backside up, on a filter paper wet with water so as to prevent the leaf from drying, and inoculated with 10 female imagoes of Tetranychus kanzawai per a leaf. 24 hours after the inoculation, 500 ppm of a compound of the present invention in the form of an emulsion diluted with water was sprayed thereon. After air-drying, the piece was left to stand in a room kept at 26° C. for 24 hours and then the numbers of the living imagoes and dead ones were counted, and the rate of dead imagoes was calculated (repetition: twice).

[3] = conc. of active ingredient 20 ppm
[4] = conc. of active ingredient 100 ppm
[5] = conc. of active ingredient 4 ppm

SMILES | Preventive rate (%) (Chochliobolus miyabeanus; [3]) | Preventive rate (%) (Chochliobolus miyabeanus; [4]) | Preventive rate (%) (Phytophthora infestans; [3]) | Preventive rate (%) (Phytophthora infestans; [4]) | Preventive rate (%) (Puccinia recondita; [3]) | Preventive rate (%) (Puccinia recondita; [4]) | Number of lesions formed within the mark to the tip (Puccinia recondite) | Preventive rate (%) (Puccinia recondite) | Rate of the translocation perfect preventive conc. (%) (Puccinia recondite) | Preventive rate (%) (Pyricularia oryzae; [3]) | Preventive rate (%) (Pyricularia oryzae; [4]) | Preventive rate (%) (Erysiphe graminis; [3]) | Preventive rate (%) (Erysiphe graminis; [4]) | Preventive rate (%) [1, 3] | Preventive rate (%) [1, 4] | Index [2] | Preventive rate (%) (Rhizoctonia solani; [3]) | Preventive rate (%) (Rhizoctonia solani; [4]) | Preventive rate (%) (Botrytis cinerea; [3]) | Preventive rate (%) (Botrytis cinerea; [4]) | further results
CNC(=O)/C(=N/OC)c1ccccc1COc1ccc2c(c1)OCC2=NOC [a-5, (E) methoxyimino-[2-(3-methoxyimino-2,3-dihydro-benzofuran-6-yloxymethyl)phenyl]-N-methyl-acetamide] | 89% | 96% | 97% | 100% | 100% | 100% | 0 | 100% | 100% | 90% | 96% | 95% | 100% | 88% | 94% | 3 (At least 40% of the area of the leaf was free from the disease.) | 70% | 84% |  |  | melting point: 143 to 145 °C
CNC(=O)/C(=N/OC)c1ccccc1COc1ccc2c(c1C)OCC2=NOC [a-16] | 95% | 98% | 97% | 100% | 100% | 100% | 0 | 100% | 100% | 89% | 96% | 100% | 100% | 100% | 100% | 3 (At least 40% of the area of the leaf was free from the disease.) | 50% | 92% | 84% | 87% | Preventive rate (%) (Botrytis cinerea; [5]): 42%; Preventive rate (%) (Chochliobolus miyabeanus; [5]): 75%; Preventive rate (%) (Phytophthora infestans; [5]): 91%; Preventive rate (%) (Puccinia recondita; [5]): 100%; Preventive rate (%) (Pyricularia oryzae; [5]): 86%; Preventive rate (%) [1, 5]: 100%
CNC(=O)/C(=N/OC)c1ccccc1COc1ccc2c(c1)CCC2 [comparative compound (1), 2-methoxyimino-2-[2-(indane-5-yloxymethyl)-phenyl]-acetic acid methylamide, reference compound] | 0% | 64% | 63% | 94% | 86% | 99% | 48 | 23% | 4.4% | 48% | 63% | 17% | 99% | 30% | 81% | 0 | 0% | 24% | 25% | 44% | effect of controlling insect pests (Spodoptera litura): did not exhibit the effect of controlling insect pests; effect of controlling insect pests (Nephotettix cincticeps): did not exhibit the effect of controlling insect pests; effect of controlling insect pests (Aphis gossypii): did not exhibit the effect of controlling insect pests; effect of controlling insect pests (Plutella xylostella): did not exhibit the effect of controlling insect pests; effect of controlling insect pests (Tetranychus kanzawai): did not exhibit the effect of controlling insect pests
CO/N=C(\C(=O)OC)c1ccccc1COc1ccc2c(c1)CCCC2 [comparative compound (2), 2-methoxyimino-2-[2-(5,6,7,8-tetrahydronaphthalene-2-yloxymethyl)phenyl]-methylacetate, reference compound] | 20% | 85% | 38% | 100% | 70% | 100% |  |  |  | 49% | 55% | 59% | 100% | 70% | 93% |  | 0% | 0% | 11% | 21% | effect of controlling insect pests (Spodoptera litura): did not exhibit the effect of controlling insect pests; effect of controlling insect pests (Nephotettix cincticeps): did not exhibit the effect of controlling insect pests; effect of controlling insect pests (Aphis gossypii): did not exhibit the effect of controlling insect pests; effect of controlling insect pests (Plutella xylostella): did not exhibit the effect of controlling insect pests; effect of controlling insect pests (Tetranychus kanzawai): did not exhibit the effect of controlling insect pests
